# Like-named read-outs stand apart in the source and are kept apart here.
# B1: 3G4: Mouse IgG3 kappa monoclonal antibody to PS and anionic phospholipids; binding mediated by β2-glycoprotein I (antibody, listed as Mus musculus)
# VH: MGWTWIFILILSVTTGVHSEVQLQQSGPELEKPGASVKLSCKASGYSFTGYNMNWVKQSHGKSLEWIGHIDPYYGDTSYNQKFRGKATLTVDKSSSTAYMQLKSLTSEDSAVYYCVKGGYYGHWYFDVWGAGTTVTVSSATTTAPSVYPLVP
# VL: MDMRAPAQILGFLLLLFPGTRCDIQMTQSPSSLSASLGERVSLTCRASQDIGSSLNWLQQGPDGTIKRLIYATSSLDSGVPKRFSGSRSGSDYSLTISSLESEDFVDYYCLQYVSSPPTFGAGTKLELKRADAAPTVFIFGRIP
# What was measured:
# L540 Hodgkin tumors = experiment: Annexin V inhibition of coaguligand-induced thrombosis in vivo; design: species or system mouse
# Experimental: The ability of Annexin V to inhibit coaguligand-induced thrombosis in vivo was examined in L540 Hodgkin-bearing SCID mice. Tumors were grown in mice and two mice per group (tumor size 0.5 cm in diameter) were injected intravenously via the tail vein with one of the following reagents: a) saline; b) 100 μg of Annexin V; c) 40 μg of anti-VCAM-1·tTF; d) 100 μg of Annexin V followed 2 hours later by 40 μg of anti-VCAM-1·tTF.
# Four hours after the last injection mice were anesthetized and perfused with heparinized saline. Tumors were removed, fixed with 4% formalin, paraffin-embedded and stained with hematoxylene-eosin. The number of thrombosed and non-thrombosed blood vessels was counted and the percentage of thrombosis was calculated.
# [1] = Reactivity of 9D2 and annexin V with plastic-immobilized phospholipids (panel); type: binding
# Experimental: (§1) Phospholipids were dissolved in n-hexane to a concentration of 50 μg/ml. 100 μl of this solution was added to wells of 96-well microtiter plates. After evaporation of the solvent in air, the plates were blocked for 2 h with 10% fetal bovine serum diluted in DPBS containing 2 mM Ca^2+ (binding buffer).
# (§2) 9D2 antibody or annexin V were diluted in the binding buffer in the presence of 10% serum at an initial concentration of 6.7 nM. Serial two-fold dilutions were prepared in the plates (100 μl per well). The plates were then incubated for 2 h at room temperature. The plates were washed and the 9D2 and annexin V were detected by goat anti-rat IgM conjugated to HRP and rabbit anti-human annexin V followed by goat anti-rabbit IgG conjugated to HRP (all diluted 1:1000), respectively. Secondary reagents were detected by using chromogenic substrate OPD followed by reading plates at 490 nm using a microplate reader (Molecular Devices, Palo Alto, Calif.).
# (§3) The specificity of the 9D2 antibody binding was validated by using control rat IgM of irrelevant specificity (Pharmingen, San Diego, Calif.). The specificity of annexin V binding to phospholipids, which is Ca^2+-dependent, was determined by diluting the reagent in the DPBS containing 5 mM EDTA. Additional negative controls consisted of washing the plates with the binding buffer containing 0.2% of a detergent Tween 20. This treatment extracts lipids, thus removing the phospholipid that was absorbed to plastic. Neither 9D2 antibody nor annexin V bound to detergent-washed plates.
# [2] = Reactivity with plastic-immobilized phospholipid; conditions: read-out: EC50 of binding
# Experimental: as §1, §2, §3
# [3] = Competition of 9D2 and annexin V for binding to immobilized PS; conditions: competitor in 10-fold molar excess
# Experimental: Biotinylated 9D2 antibody and annexin V were prepared by incubating purified proteins with a 10-fold molar excess of N-hydroxysuccinimide biotin (Sigma, MO) for 1 h at room temperature. Free biotin was removed by dialysis against PBS. […] For competition studies, […] biotinylated proteins were premixed with a 10-fold molar excess of unmodified proteins. The mixtures were then added to PS-coated plates. Bound reagents were detected by streptavidin-HRP conjugate diluted 1:1000. The binding to PS of each reagent in the absence of a competitor was taken as the 100% value.
# [4] = test system: orthotopic MDA-MB-435 breast tumors; experiment: 3G4 localization to tumor blood vessels in vivo; design: species or system mouse
# Description: Frozen sections of tumor and normal tissues were stained for the presence of mouse immunoglobulin. SCID mice that had been confirmed as having no detectable circulatory immunoglobulin were used to avoid background staining. In these studies, sections were counterstained with anti-mouse CD31 to detect vascular endothelium and the images were merged. […] Coincident staining appeared yellow, unless dominated by a particularly intense green or red fluorescence in that region. The antigen specificity of vessel localization was confirmed by the lack of endothelial staining in tumors from mice injected with the isotype-matched control antibodies, BBG3.
# [5] = test system: orthotopic MDA-MB-231 tumors; experiment: 3G4 tumor treatment and histology; type: in vivo, mouse
# Experimental: The general protocol for the animal tumor treatment studies is conducted as follows. Unless particular differences are specified, this is the protocol used throughout the studies of the present application.
# For the syngeneic model, Meth A mouse fibrosarcoma tumor cells were used. In one xenogeneic model, human MDA-MB-231 breast tumor cells were seeded into the mammary fat pad. In another xenogeneic model, a large human Hodgkin's lymphoma L540 xenograft was established by injecting cells and allowing the tumor to grow to a size of over 500 mm^3 before treatment. […] Treatment was repeated 3 times a week. Animals were monitored twice a week for tumor measurements.
# Groups of 8-10 female SCID mice were injected subcutaneously with 2×10^7 L540 cells or orthotopically with 1×10^7 MDA-MB-435 or MDA-MB-231 cells. BALB/c mice were injected subcutaneously with 1×10^6 Meth A cells. Tumors were allowed to grow to an average diameter of 0.8-1 cm (L540), 0.6-0.7 cm (MDA-MB-435), 0.5-0.7 cm (MDA-MB-231), or <0.1 cm (Meth A). […] Animals were monitored three times a week for tumor size and body weight. Mice were sacrificed when tumors in control mice reached a diameter of 1.5-2 cm.
# bEnd.3 cells = experiment: Growth of bEnd.3 cells in vitro; type: cell-based, mouse; conditions: 20 μg to 40 μg total IgG per well; 48 and 96 hours
# Experimental: 20% DMEM alone (control) or 20% DMEM containing the antibodies (20 μg to 40 μg total IgG per well) was added 4 hours after seeding. Each clone was tested on two separate plates in triplicates. Cells were detached 48 and 96 hours later, the cell count was determined in each well and the average cell number per treatment was calculated.
# Pichinde virus = type: cell-based
# [6] = test system: Tissue Factor (TF)-induced coagulation
# human CMV AD169 = experiment: CMV-GFP spread by fluorescent microscopy
molecule,measurement,setting,value
Annexin V: High affinity PS binding ligand; natural ligand binding anionic phospholipids and PE,coaguligand-induced intravascular thrombosis and changes in tumor cell morphology,L540 Hodgkin tumors; 100 μg Annexin V 2 hours before 40 μg coaguligand,completely abolished
same,tumor morphology,L540 Hodgkin tumors; 100 μg Annexin V alone,did not alter tumor morphology
same,"binding to heparin, heparan sulfate or double or single stranded DNA",[1],did not bind detectably
same,order of strength of binding to phospholipids in ELISA,[1],PI>PS=PE=PA=CL>PG
same,effect of EDTA on binding to anionic phospholipids,[1]; 5 mM EDTA,abolished
same,EC50,[2]; CL,0.13 nM
same,EC50,[2]; PA,0.1 nM
same,EC50,[2]; PC,> 8 nM
same,EC50,[2]; PE,0.1 nM
same,EC50,[2]; PG,0.25 nM
same,EC50,[2]; PI,0.05 nM
same,EC50,[2]; PS,0.1 nM
same,EC50,[2]; SM,> 8 nM
same,Binding (% Control) of Biotinylated 9D2 to PS,[3],93%
same,Binding (% Control) of Biotinylated annexin V to PS,[3],8%
B1,tumor blood vessels with localized antibody,[4]; after i.p. or i.v. injection,40±10%
same,time to maximal localization to tumor vessels,[4]; i.p. injection,≤ 6 h
same,time to maximal staining of tumor vessels,[4]; i.v. injection,≤ 1 h
same,mean number of CD-31 positive vessels per square millimeter,[5]; BBG3-treated: 160±20,50±15 per square millimeter
same,reduction in total tumor plasma volume vs BBG3,[5]; FITC-dextran plasma marker,60%
same,mice with long-term complete remissions,[5]; MDA-MB-231 tumors,30%
same,vessels with disintegration of vascular endothelium,[5]; histological examination,about 50%
same,reduction in tumor vascularity,"[5]; mouse, in vivo",about 70%
same,reduction in microvascular density,[5]; treated vs. untreated mice,70%
same,inhibition of growth of bEnd.3 cells,bEnd.3 cells,particularly effective
same,infected cells,Pichinde virus,about one in about a hundred cells
same,inhibition of TF-induced coagulation,[6],weak inhibition
same,cell-to-cell spread,human CMV AD169; 100 μg/ml and 50 μg/ml,complete inhibition of cell-to-cell spread
same,entry of the virus into the cells,"human CMV AD169; day 3, 50 and 100 μg/ml",does not appear to significantly inhibit the entry of the virus
same,viral spread in monolayer,"human CMV AD169; day 9, 100 μg/ml and 50 μg/ml, control wells approximately 80% infected",restricted to the original singly-infected cell
